Experimental data: patent US20220177508A1, “C10-Cyclic Substituted 13-Membered Macrolides and Uses Thereof” (Zikani Therapeutics, Inc., priority 2018, published 2022)
Values after ≈ are worked out from the molar mass of the structure shown.

What was measured:
Assay type in all cases: cell-based
S. aureus MP-12 = assay: Broth dilution MIC determination (CLSI), S. aureus MP-12; settings: Staphylococcus aureus, MP12; strain MP-12, broth dilution
E. coli MP-4 = assay: Broth dilution MIC determination (CLSI), E. coli MP-4; settings: Escherichia coli, MP4; strain MP-4, broth dilution; read-out: MIC E. coli MP-4
K. pneumoniae MP-546 = assay: Broth dilution MIC determination (CLSI), K. pneumoniae MP-546; settings: Klebsiella pneumoniae, MP546; strain MP-546, broth dilution
P. aeruginosa MP-3 = assay: Broth dilution MIC determination (CLSI), P. aeruginosa MP-3; settings: Pseudomonas aeruginosa, MP3; strain MP-3, broth dilution
A. baumannii MP-15 = assay: Broth dilution MIC determination (CLSI), A. baumannii MP-15; settings: Acinetobacter baumannii, MP15; strain MP-15, broth dilution; read-out: MIC A. baumanii MP-15

Row | MIC (S. aureus MP-12) | MIC (E. coli MP-4) | MIC (K. pneumoniae MP-546) | MIC (P. aeruginosa MP-3) | MIC (A. baumannii MP-15) | SMILES
1 | 4 to 32 µg/mL (≈ 6.85 to 54.8 µM) | < 4 µg/mL | 4 to 32 µg/mL (≈ 6.85 to 54.8 µM) | > 32 µg/mL | > 32 µg/mL | CO[C@]1(C)C[C@@H](C)CN(C)[C@H](C2CCNCC2)COC(=O)C(C)(C)C(=O)[C@H](C)[C@H]1O[C@@H]1O[C@H](C)C[C@H](N(C)C)[C@H]1O [Compound 80, (3R,6R,8R,9R,10R)-9-(((2S,3R,4S,6R)-4-(dimethylamino)-3-hydroxy-6-methyltetrahydro-2H-pyran-2-yl)oxy)-8-methoxy-4,6,8,10,12,12-hexamethyl-3-(piperidin-4-yl)-1-oxa-4-azacyclotridecane-11,13-dione]
2 | > 32 µg/mL | < 4 µg/mL | 4 to 32 µg/mL (≈ 6.54 to 52.3 µM) | > 32 µg/mL | > 32 µg/mL | CO[C@]1(C)C[C@@H](C)CN(C)[C@@H](C2CN(CC(C)C)C2)COC(=O)C(C)(C)C(=O)[C@H](C)[C@H]1O[C@@H]1O[C@H](C)C[C@H](N(C)C)[C@H]1O [Compound 81, (3S,6R,8R,9R,10R)-9-(((2S,3R,4S,6R)-4-(dimethylamino)-3-hydroxy-6-methyltetrahydro-2H-pyran-2-yl)oxy)-3-(1-isobutylazetidin-3-yl)-8-methoxy-4,6,8,10,12,12-hexamethyl-1-oxa-4-azacyclotridecane-11,13-dione]
3 | > 32 µg/mL | > 32 µg/mL | > 32 µg/mL | > 32 µg/mL | > 32 µg/mL | CO[C@]1(C)C[C@@H](C)CN(C)[C@@H]([C@H]2CC[C@H](N(C)C(=O)CN(C)C)CC2)COC(=O)C(C)(C)C(=O)[C@H](C)[C@H]1O[C@@H]1O[C@H](C)C[C@H](N(C)C)[C@H]1O [Compound 82, 2-(dimethylamino)-N-((1S,4r)-4-((3S,6R,8R,9R,10R)-9-(((2S,3R,4S,6R)-4-(dimethylamino)-3-hydroxy-6-methyltetrahydro-2H-pyran-2-yl)oxy)-8-methoxy-4,6,8,10,12,12-hexamethyl-11,13-dioxo-1-oxa-4-azacyclotridecan-3-yl)cyclohexyl)-N-methylacetamide]
4 | > 32 µg/mL | < 4 µg/mL | 4 to 32 µg/mL (≈ 5.98 to 47.8 µM) | > 32 µg/mL | > 32 µg/mL | CO[C@]1(C)C[C@@H](C)CN(C)[C@H](C2CCN(C(=O)CN(C)C)CC2)COC(=O)C(C)(C)C(=O)[C@H](C)[C@H]1O[C@@H]1O[C@H](C)C[C@H](N(C)C)[C@H]1O [Compound 85, (3R,6R,8R,9R,10R)-9-(((2S,3R,4S,6R)-4-(dimethylamino)-3-hydroxy-6-methyltetrahydro-2H-pyran-2-yl)oxy)-3-(1-(dimethylglycyl)piperidin-4-yl)-8-methoxy-4,6,8,10,12,12-hexamethyl-1-oxa-4-azacyclotridecane-11,13-dione]
5 | > 32 µg/mL | > 32 µg/mL | > 32 µg/mL | > 32 µg/mL | > 32 µg/mL | CO[C@]1(C)C[C@@H](C)CN(C)[C@H](C2CCCCC2)COC(=O)C(C)(C)C(=O)[C@H](C)[C@H]1O[C@@H]1O[C@H](C)C[C@H](N(C)C)[C@H]1O [Compound 88, (3R,6R,8R,9R,10R)-3-cyclohexyl-9-(((2S,3R,4S,6R)-4-(dimethylamino)-3-hydroxy-6-methyltetrahydro-2H-pyran-2-yl)oxy)-8-methoxy-4,6,8,10,12,12-hexamethyl-1-oxa-4-azacyclotridecane-11,13-dione]
6 | > 32 µg/mL | 4 to 32 µg/mL (≈ 6.69 to 53.5 µM) | > 32 µg/mL | > 32 µg/mL | > 32 µg/mL | CO[C@]1(C)C[C@@H](C)CN(C)[C@@H]([C@H]2CCCN(C)C2)COC(=O)C(C)(C)C(=O)[C@H](C)[C@H]1O[C@@H]1O[C@H](C)C[C@H](N(C)C)[C@H]1O [Compound 89, (3S,6R,8R,9R,10R)-9-(((2S,3R,4S,6R)-4-(dimethylamino)-3-hydroxy-6-methyltetrahydro-2H-pyran-2-yl)oxy)-8-methoxy-4,6,8,10,12,12-hexamethyl-3-((S)-1-methylpiperidin-3-yl)-1-oxa-4-azacyclotridecane-11,13-dione]
7 | > 32 µg/mL | 4 to 32 µg/mL (≈ 6.39 to 51.1 µM) | 4 to 32 µg/mL (≈ 6.39 to 51.1 µM) | > 32 µg/mL | > 32 µg/mL | CO[C@]1(C)C[C@@H](C)CN(C)[C@H]([C@@H]2CCCN(C(C)C)C2)COC(=O)C(C)(C)C(=O)[C@H](C)[C@H]1O[C@@H]1O[C@H](C)C[C@H](N(C)C)[C@H]1O [Compound 90, (3R,6R,8R,9R,10R)-9-(((2S,3R,4S,6R)-4-(dimethylamino)-3-hydroxy-6-methyltetrahydro-2H-pyran-2-yl)oxy)-3-((R)-1-isopropylpiperidin-3-yl)-8-methoxy-4,6,8,10,12,12-hexamethyl-1-oxa-4-azacyclotridecane-11,13-dione]
8 | > 32 µg/mL | < 4 µg/mL | 4 to 32 µg/mL (≈ 6.39 to 51.1 µM) | > 32 µg/mL | > 32 µg/mL | CO[C@]1(C)C[C@@H](C)CN(C)[C@H](C2CN(CC3COC3)C2)COC(=O)C(C)(C)C(=O)[C@H](C)[C@H]1O[C@@H]1O[C@H](C)C[C@H](N(C)C)[C@H]1O [Compound 91, (3R,6R,8R,9R,10R)-9-(((2S,3R,4S,6R)-4-(dimethylamino)-3-hydroxy-6-methyltetrahydro-2H-pyran-2-yl)oxy)-8-methoxy-4,6,8,10,12,12-hexamethyl-3-(1-(oxetan-3-ylmethyl)azetidin-3-yl)-1-oxa-4-azacyclotridecane-11,13-dione]
9 | 4 to 32 µg/mL (≈ 6.01 to 48.1 µM) | 4 to 32 µg/mL (≈ 6.01 to 48.1 µM) | > 32 µg/mL | > 32 µg/mL | > 32 µg/mL | CO[C@]1(C)C[C@@H](C)CN(C)[C@H](C2CCN(CC(F)(F)F)CC2)COC(=O)C(C)(C)C(=O)[C@H](C)[C@H]1O[C@@H]1O[C@H](C)C[C@H](N(C)C)[C@H]1O [Compound 92, (3R,6R,8R,9R,10R)-9-(((2S,3R,4S,6R)-4-(dimethylamino)-3-hydroxy-6-methyltetrahydro-2H-pyran-2-yl)oxy)-8-methoxy-4,6,8,10,12,12-hexamethyl-3-(1-(2,2,2-trifluoroethyl)piperidin-4-yl)-1-oxa-4-azacyclotridecane-11,13-dione]
10 | 4 to 32 µg/mL (≈ 5.99 to 47.9 µM) | 4 to 32 µg/mL (≈ 5.99 to 47.9 µM) | > 32 µg/mL | > 32 µg/mL | > 32 µg/mL | CO[C@]1(C)C[C@@H](C)CN(C)[C@H](c2ccc(-c3cccc(N)c3)cc2)COC(=O)C(C)(C)C(=O)[C@H](C)[C@H]1O[C@@H]1O[C@H](C)C[C@H](N(C)C)[C@H]1O [Compound 93, (3R,6R,8R,9R,10R)-3-(3′-Amino-[1,1′-biphenyl]-4-yl)-9-(((2S,3R,4S,6R)-4-(dimethylamino)-3-hydroxy-6-methyltetrahydro-2H-pyran-2-yl)oxy)-8-methoxy-4,6,8,10,12,12-hexamethyl-1-oxa-4-azacyclotridecane-11,13-dione]
11 | > 32 µg/mL | 4 to 32 µg/mL (≈ 5.98 to 47.8 µM) | > 32 µg/mL | > 32 µg/mL | > 32 µg/mL | CO[C@]1(C)C[C@@H](C)CN(C)[C@H]([C@H]2CCCN(C(=O)CN(C)C)C2)COC(=O)C(C)(C)C(=O)[C@H](C)[C@H]1O[C@@H]1O[C@H](C)C[C@H](N(C)C)[C@H]1O [Compound 96, (3R,6R,8R,9R,10R)-9-(((2S,3R,4S,6R)-4-(dimethylamino)-3-hydroxy-6-methyltetrahydro-2H-pyran-2-yl)oxy)-3-((S)-1-(dimethylglycyl)piperidin-3-yl)-8-methoxy-4,6,8,10,12,12-hexamethyl-1-oxa-4-azacyclotridecane-11,13-dione]
12 | 4 to 32 µg/mL (≈ 6.85 to 54.8 µM) | < 4 µg/mL | 4 to 32 µg/mL (≈ 6.85 to 54.8 µM) | > 32 µg/mL | > 32 µg/mL | CO[C@]1(C)C[C@@H](C)CN(C)[C@@H](C2CCNCC2)COC(=O)C(C)(C)C(=O)[C@H](C)[C@H]1O[C@@H]1O[C@H](C)C[C@H](N(C)C)[C@H]1O [Compound 98, (3S,6R,8R,9R,10R)-9-(((2S,3R,4S,6R)-4-(dimethylamino)-3-hydroxy-6-methyltetrahydro-2H-pyran-2-yl)oxy)-8-methoxy-4,6,8,10,12,12-hexamethyl-3-(piperidin-4-yl)-1-oxa-4-azacyclotridecane-11,13-dione]
13 | > 32 µg/mL | < 4 µg/mL | < 4 µg/mL | > 32 µg/mL | > 32 µg/mL | CO[C@]1(C)C[C@@H](C)CN(C)[C@@H](C2CN(C)C2)COC(=O)C(C)(C)C(=O)[C@H](C)[C@H]1O[C@@H]1O[C@H](C)C[C@H](N(C)C)[C@H]1O [Compound 99, (3S,6R,8R,9R,10R)-9-(((2S,3R,4S,6R)-4-(dimethylamino)-3-hydroxy-6-methyltetrahydro-2H-pyran-2-yl)oxy)-8-methoxy-4,6,8,10,12,12-hexamethyl-3-(1-methylazetidin-3-yl)-1-oxa-4-azacyclotridecane-11,13-dione]
14 | > 32 µg/mL | 4 to 32 µg/mL (≈ 6.11 to 48.9 µM) | 4 to 32 µg/mL (≈ 6.11 to 48.9 µM) | > 32 µg/mL | > 32 µg/mL | CO[C@]1(C)C[C@@H](C)CN(C)[C@H]([C@H]2CCN(C(=O)CN(C)C)C2)COC(=O)C(C)(C)C(=O)[C@H](C)[C@H]1O[C@@H]1O[C@H](C)C[C@H](N(C)C)[C@H]1O [Compound 100, (3R,6R,8R,9R,10R)-9-(((2S,3R,4S,6R)-4-(Dimethylamino)-3-hydroxy-6-methyltetrahydro-2H-pyran-2-yl)oxy)-3-((S)-1-(dimethylglycyl)pyrrolidin-3-yl)-8-methoxy-4,6,8,10,12,12-hexamethyl-1-oxa-4-azacyclotridecane-11,13-dione]

Row | SMILES | MIC (S. aureus MP-12) | MIC (E. coli MP-4) | MIC (K. pneumoniae MP-546) | MIC (P. aeruginosa MP-3) | MIC (A. baumannii MP-15)
15 | CO[C@]1(C)C[C@@H](C)CN(C)[C@H](C2CC3CCC(C2)N3CC(C)C)COC(=O)C(C)(C)C(=O)[C@H](C)[C@H]1O[C@@H]1O[C@H](C)C[C@H](N(C)C)[C@H]1O (stereo partly drawn) [Compound 87, (3R,6R,8R,9R,10R)-9-(((2S,3R,4S,6R)-4-(dimethylamino)-3-hydroxy-6-methyltetrahydro-2H-pyran-2-yl)oxy)-3-(8-isobutyl-8-azabicyclo[3.2.1]octan-3-yl)-8-methoxy-4,6,8,10,12,12-hexamethyl-1-oxa-4-azacyclotridecane-11,13-dione] | < 4 µg/mL | < 4 µg/mL | 4 to 32 µg/mL (≈ 6.01 to 48.1 µM) | > 32 µg/mL | > 32 µg/mL
